These results are taken from patent US10563263B2, “Genetic polymorphisms associated with statin response and cardiovascular diseases, methods of detection and uses thereof” (CELERA CORPORATION, priority 2010, dated 2020).

This assay has as its system recurrent MI. The assay can be described thus: CARE: CHD statin response (recurrent MI) by SNP genotype, hazard ratio pravastatin vs placebo (Table 22). Format: in vivo, human. Particulars: rs873134 (hCV2652047), ref = placebo. An excerpt:
In the analysis for which the results are provided in Table 22, the endpoint was recurrent MI, and the analysis was adjusted for age, gender, hypertension, diabetes, base LDL and HDL, and whether an individual was a current smoker.
In Tables 20-22, certain columns are labeled “RESP”, “PLACEBO, OR “ALL”. “RESP” is for statin response as measured by comparing risk (risk for stroke, including TIA, in Tables 20-21, and risk for CHD, specifically recurrent MI, in Table 22) in the pravastatin-treated group with risk in the placebo-treated group, “PLACEBO” is the placebo-treated group, and “ALL” is the combination of the placebo-treated group and the pravastatin-treated group. “RESP” is the analysis to assess statin response in the indicated genotype group.
“EVENTS” indicates the total number of events (stroke or TIA for Tables 20-21, and recurrent MI for Table 22) in individuals with the indicated genotype.
“HR” indicates the hazard ratio.
CARE was a secondary prevention trial and WOSCOPS was a primary prevention trial.
Thus, SNP rs873134 is an example of a SNP that is associated with statin response for reducing risk for both stroke and CHD. In the analysis for which the results are provided in Table 22, the endpoint was recurrent MI, and the analysis was adjusted for age, gender, hypertension, diabetes, base LDL and HDL, and whether an individual was a current smoker.

Each structure is given as a SMILES string.

For `CC[C@H](C)C(=O)O[C@H]1C[C@H](O)C=C2C=C[C@H](C)[C@H](CC[C@@H](O)C[C@@H](O)CC(=O)O)[C@H]21` [Pravastatin, pravastatin], the “HR_RESP (hazard ratio pravastatin vs placebo, CHD)” value is, setting by setting: (MODE DOM, genotype TC + TT) 0.85; (MODE GEN, genotype CC) 0.48; (MODE GEN, genotype TC) 1; (MODE GEN, genotype TT) 0.57.
